IC50 data for 16 compounds are collected here from patent publication EP2226323A1, “New tetrahydropyrazolo[3,4-c]isoquinolin-5-amine derivatives” (Almirall, S.A., priority 2009, dated 2010).

One may read the IC50 as the concentration at which inhibition is half-maximal.

The target of this assay is recombinant PDE4 enzyme. Kind of assay: PDE4 assay: [3H] cAMP Scintillation Proximity Assay (SPA) of phosphodiesterase activity. It is filed as biochemical. The conditions noted are these: yeast extract of recombinant PDE4 enzyme; 30 nM [3H] cAMP; 1 hr at room temperature; pH 7.5. The method, then:
Measurement of Phosphodiesterase Activity was done using a [3H] cAMP Scintillation Proximity Assay (SPA) (GE Healthcare). Compounds to be tested were dissolved in DMSO at a stock concentration of 1 mM and serial dilutions were prepared in 50% DMSO to determine IC50s. The reactions were conducted in 96-well plates (Corning, Ref.3604) at room temperature, in 0.1 ml of reaction buffer containing (final concentrations): 50 mM Tris-HCl, pH 7.5, 8.3 mM MgCl2, 1.7 mM EGTA, 30 nM [3H] cAMP (approximately 150000 dpm/well) with or without the inhibitors. The reaction was initiated by adding yeast extract of recombinant PDE4 enzyme. Plates were shaken for 1 hr at room temperature and the incubation was terminated by adding 50 µl (0.5 mg /well) of SPA yttrium silicate beads (RPNQ 0150; GE Healthcare) in the presence of zinc sulfate. Plates were stored overnight in the dark and read on a TRILUX microtiter plate reader (Perkin Elmer).
Background: Scintillation proximity formats need no separation of bound from free tracer.
Regarding `CC1(C)CCc2c(Nc3c(Cl)cncc3Cl)nc3[nH]nc(O)c3c2C1` [Example 1, 5-(3,5-Dichloropyridin-4-ylamino)-8,8-dimethyl-6,7,8,9-tetrahydro-3H-pyrazolo[3,4-c]isoquinolin-1-ol], the IC50 amounted to 3.9 nM. With `CC1(C)CCc2c(Nc3c(Cl)cncc3Cl)nc3[nH]nc(N)c3c2C1` [Example 2, N^5-(3,5-Dichloropyridin-4-yl)-8,8-dimethyl-6,7,8,9-tetrahydro-3H-pyrazolo[3,4-c]isoquinoline-1,5-diamine] the figure was 62 nM; with `CN(C)C(=O)c1cccc(S(=O)(=O)n2nc(O)c3c4c(c(Nc5c(Cl)cncc5Cl)nc32)CCC(C)(C)C4)c1` [Example 3, 3-(5-(3,5-Dichloropyridin-4-ylamino)-1-hydroxy-8,8-dimethyl-6,7,8,9-tetrahydro-3H-pyrazolo[3,4-c]isoquinolin-3-ylsulfonyl)-N, N-dimethylbenzamide], 16.8 nM.

Turning to `COc1cccc(Cn2nc(O)c3c4c(c(Nc5c(Cl)cncc5Cl)nc32)CCC(C)(C)C4)c1` [Example 4, 5-(3,5-Dichloropyridin-4-ylamino)-3-(3-methoxybenzyl)-8,8-dimethyl-6,7,8,9-tetrahydro-3H-pyrazolo[3,4-c]isoquinolin-1-ol], the IC50 is 11 nM. With `Cn1nc(O)c2c3c(c(Nc4c(Cl)cncc4Cl)nc21)CCC(C)(C)C3` [Example 5, 5-(3,5-Dichloropyridin-4-ylamino)-3,8,8-trimethyl-6,7,8,9-tetrahydro-3H-pyrazolo[3,4-c]isoquinolin-1-ol] the figure was 17.1 nM; with `CC1(C)CCc2c(Nc3c(Cl)cncc3Cl)nc3c(c(O)nn3Cc3cccc(C(=O)O)c3)c2C1` [Example 7, 3-((5-(3,5-Dichloropyridin-4-ylamino)-1-hydroxy-8,8-dimethyl-6,7,8,9-tetrahydro-3H-pyrazolo[3,4-c]isoquinolin-3-yl)methyl)benzoic acid], 3.1 nM; with `CC1(C)CCc2c(Nc3c(Cl)cncc3Cl)nc3c(c(O)nn3Cc3cccnc3)c2C1` [Example 8, 5-(3,5-Dichloropyridin-4-ylamino)-8,8-dimethyl-3-(pyridin-3-ylmethyl)-6,7,8,9-tetrahydro-3H-pyrazolo[3,4-c]isoquinolin-1-ol], 7.4 nM. With `CC1(C)CCc2c(Nc3c(Cl)cncc3Cl)nc3c(c(O)nn3CC(N)=O)c2C1` [Example 9, 2-(5-(3,5-Dichloropyridin-4-ylamino)-1-hydroxy-8,8-dimethyl-6,7,8,9-tetrahydro-3H-pyrazolo[3,4-c]isoquinolin-3-yl)acetamide], the IC50 is 18.8 nM. The value for `CC1(C)CCc2c(Nc3c(Cl)cncc3Cl)nc3c(c(O)nn3Cc3cccc(C(N)=O)c3)c2C1` [Example 10, 3-((5-(3,5-Dichloropyridin-4-ylamino)-1-hydroxy-8,8-dimethyl-6,7,8,9-tetrahydro-3H-pyrazolo[3,4-c]isoquinolin-3-yl)methyl)benzamide] was 2.3 nM; that for `CC1(C)CCc2c(Nc3c(Cl)cncc3Cl)nc3c(c(O)nn3Cc3ccc(C(=O)O)cc3)c2C1` [Example 12, 4-((5-(3,5-Dichloropyridin-4-ylamino)-1-hydroxy-8,8-dimethyl-6,7,8,9-tetrahydro-3H-pyrazolo[3,4-c]isoquinolin-3-yl)methyl)benzoic acid] was 2.4 nM; that for `CC1(C)CCc2c(Nc3c(Cl)cncc3Cl)nc3c(c(O)nn3Cc3cccc(C#N)c3)c2C1` [Example 13, 3-((5-(3,5-Dichloropyridin-4-ylamino)-1-hydroxy-8,8-dimethyl-6,7,8,9-tetrahydro-3H-pyrazolo[3,4-c]isoquinolin-3-yl)methyl)benzonitrile] was 2.35 nM. The value for `CC1(C)CCc2c(Nc3c(Cl)cncc3Cl)nc3c(c(O)nn3Cc3ccc(C(N)=O)cc3)c2C1` [Example 14, 4-((5-(3,5-Dichloropyridin-4-ylamino)-1-hydroxy-8,8-dimethyl-6,7,8,9-tetrahydro-3H-pyrazolo[3,4-c]isoquinolin-3-yl)methyl)benzamide] was 5.17 nM.

On to `CC1(C)CCc2c(Nc3c(Cl)cncc3Cl)nc3c(c(O)nn3CCCN3CCOCC3)c2C1` [Example 15, 5-(3,5-Dichloropyridin-4-ylamino)-8,8-dimethyl-3-(3-morpholinopropyl)-6,7,8,9-tetrahydro-3H-pyrazolo[3,4-c]isoquinolin-1-ol], for which the IC50 was determined as 6.14 nM. Take `CC1(C)CCc2c(Nc3c(Cl)cncc3Cl)nc3c(c(O)nn3CCCc3cccc(C#N)c3)c2C1` [Example 16, 3-(3-(5-(3,5-Dichloropyridin-4-ylamino)-1-hydroxy-8,8-dimethyl-6,7,8,9-tetrahydro-3H-pyrazolo[3,4-c]isoquinolin-3-yl)propyl)benzonitrile]: the IC50 stood at 15.5 nM.

Consider `CC1(C)CCc2c(Nc3c(Cl)cncc3Cl)nc3c(c(O)nn3CCCc3cccc(C(N)=O)c3)c2C1` [Example 17, 3-(3-(5-(3,5-Dichloropyridin-4-ylamino)-1-hydroxy-8,8-dimethyl-6,7,8,9-tetrahydro-3H-pyrazolo[3,4-c]isoquinolin-3-yl)propyl)benzamide], for which the IC50 worked out at 2.1 nM. With “Methyl 3-((5-(3,5-dichloropyridin-4-ylamino)-1-hydroxy-8,8-dimethyl-6,7,8,9-tetrahydro-3H-pyrazolo[3,4-c]isoquinolin-3-yl)methyl)benzoate [Example 6]” the figure was 2 nM.
